Measured values taken from US20130071854A1, “METHODS FOR THE IDENTIFICATION AND CHARACTERIZATION OF HDAC INTERACTING COMPOUNDS” (priority 2009, published 2013).
Read-outs that look alike come from different tables or passages of the source.

What was measured:
MIER1 = experiment: Chemoproteomic binding profiling, K562 cell extract, SAHA/ITF2357 probe matrix (Kd app), ELSA (ELM-SANT) domain protein; set-up: species or system human; details: ELSA (ELM-SANT) domain proteins
RERE = experiment: as above; set-up: species or system human; details: protein RERE; ELSA (ELM-SANT) domain proteins
[1] = molecular target: T1, non-HDAC targets (e.g. BZW2, ISOC2, aldehyde dehydrogenases) (Homo sapiens, UniProt Q96AB3); experiment: Chemoproteomic binding profiling, K562 cell extract, SAHA/ITF2357 probe matrix (Kd app); details: protein ISOC2; selected HDACi off-targets
T1 construct: endogenous in cells; host or cells: K562 whole cell extract
T1 sequence (Q96AB3 1-205): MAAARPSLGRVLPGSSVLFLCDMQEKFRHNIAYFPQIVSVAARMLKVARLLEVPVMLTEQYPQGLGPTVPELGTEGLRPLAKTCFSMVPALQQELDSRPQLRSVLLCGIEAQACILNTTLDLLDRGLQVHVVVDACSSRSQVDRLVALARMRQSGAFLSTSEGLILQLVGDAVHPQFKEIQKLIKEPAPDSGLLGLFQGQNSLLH

[2] = molecular target: T2, non-HDAC targets (e.g. BZW2, ISOC2, aldehyde dehydrogenases) (Homo sapiens, UniProt Q08209); experiment: as above; details: protein PPP3CA; selected HDACi off-targets
T2 construct: Kd^app PPP3CA; other: protein PPP3CA; selected HDACi off-targets

[3] = molecular target: T3, non-HDAC targets (e.g. BZW2, ISOC2, aldehyde dehydrogenases) (Homo sapiens, UniProt Q9Y6E2); experiment: as above; details: protein BZW2; selected HDACi off-targets
T3 construct: endogenous in cells; host or cells: K562 whole cell extract
T3 sequence (Q9Y6E2 1-419): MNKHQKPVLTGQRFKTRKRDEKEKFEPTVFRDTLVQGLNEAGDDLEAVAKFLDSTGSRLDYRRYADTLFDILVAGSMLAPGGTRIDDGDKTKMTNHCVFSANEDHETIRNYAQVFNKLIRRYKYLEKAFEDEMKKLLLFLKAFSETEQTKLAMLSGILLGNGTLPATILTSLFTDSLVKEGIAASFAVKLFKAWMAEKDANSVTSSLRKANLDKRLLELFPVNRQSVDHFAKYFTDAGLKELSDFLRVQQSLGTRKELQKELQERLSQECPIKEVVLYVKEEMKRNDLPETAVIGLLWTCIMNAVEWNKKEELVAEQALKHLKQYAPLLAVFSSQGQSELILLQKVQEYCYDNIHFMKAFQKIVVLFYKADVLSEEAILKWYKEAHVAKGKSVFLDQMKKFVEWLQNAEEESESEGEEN

[4] = molecular target: T4, non-HDAC targets (e.g. BZW2, ISOC2, aldehyde dehydrogenases) (Homo sapiens, UniProt O94788); experiment: as above; details: protein ALDH1A2; selected HDACi off-targets
T4 construct: endogenous in cells; host or cells: K562 whole cell extract
T4 sequence (O94788 1-518): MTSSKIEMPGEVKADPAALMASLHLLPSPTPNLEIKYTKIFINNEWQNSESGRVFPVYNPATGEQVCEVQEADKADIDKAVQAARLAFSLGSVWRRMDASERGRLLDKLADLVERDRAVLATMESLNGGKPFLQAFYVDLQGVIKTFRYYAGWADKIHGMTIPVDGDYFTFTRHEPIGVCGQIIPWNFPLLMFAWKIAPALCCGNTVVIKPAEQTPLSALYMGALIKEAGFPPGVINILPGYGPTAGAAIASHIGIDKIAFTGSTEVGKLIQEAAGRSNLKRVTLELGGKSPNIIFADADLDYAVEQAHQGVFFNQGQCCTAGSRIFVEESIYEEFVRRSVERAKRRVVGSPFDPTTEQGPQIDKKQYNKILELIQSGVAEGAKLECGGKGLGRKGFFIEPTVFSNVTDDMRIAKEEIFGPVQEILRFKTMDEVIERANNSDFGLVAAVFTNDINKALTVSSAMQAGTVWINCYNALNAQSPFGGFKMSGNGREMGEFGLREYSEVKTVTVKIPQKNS

[5] = molecular target: T5, non-HDAC targets (e.g. BZW2, ISOC2, aldehyde dehydrogenases) (Homo sapiens, UniProt P16152); experiment: as above; details: protein CBR1; selected HDACi off-targets
T5 construct: Kd^app CBR1; other: protein CBR1; selected HDACi off-targets
T5 sequence (P16152 1-277): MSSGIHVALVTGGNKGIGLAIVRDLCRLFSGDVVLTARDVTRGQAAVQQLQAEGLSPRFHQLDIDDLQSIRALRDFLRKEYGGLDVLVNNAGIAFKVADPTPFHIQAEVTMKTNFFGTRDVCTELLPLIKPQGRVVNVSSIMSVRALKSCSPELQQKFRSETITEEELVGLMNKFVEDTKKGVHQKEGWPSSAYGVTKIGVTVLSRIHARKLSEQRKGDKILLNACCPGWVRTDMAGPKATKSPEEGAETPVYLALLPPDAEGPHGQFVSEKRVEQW

MIER3 = experiment: Chemoproteomic binding profiling, K562 cell extract, SAHA/ITF2357 probe matrix (Kd app), ELSA (ELM-SANT) domain protein; set-up: species or system human; details: ELSA (ELM-SANT) domain proteins
NuRD complex = experiment: Chemoproteomic binding profiling, K562 cell extract, SAHA/ITF2357 probe matrix (Kd app); set-up: species or system human; details: NuRD complex
CoREST complex = experiment: as above; set-up: species or system human; details: CoREST complex
MIER2 = experiment: Chemoproteomic binding profiling, K562 cell extract, SAHA/ITF2357 probe matrix (Kd app), ELSA (ELM-SANT) domain protein; set-up: species or system human; details: ELSA (ELM-SANT) domain proteins
EHMT2 = experiment: Chemoproteomic binding profiling, K562 cell extract, SAHA/ITF2357 probe matrix (Kd app), ELSA (ELM-SANT) domain proteins group; set-up: species or system human; details: protein EHMT2

| SMILES | Kd (RERE) | Kd [1] | Kd [2] | Kd [3] | Kd [4] | Kd [5] | Kd (MIER3) | also measured |
| --- | --- | --- | --- | --- | --- | --- | --- | --- |
| O=C(/C=C/c1ccc(CN(CCO)CCc2c[nH]c3ccccc23)cc1)NO [dacinostat] | > 10000 nM | > 10000 nM | 1510 nM | 1710 nM | > 10000 nM | 880 nM | 10 nM | Kd (MIER1): 20 nM; Kd (NuRD complex; protein GATAD2A, read-out: Kd^app GATAD2A): 20 nM; Kd (NuRD complex; protein GATAD2B, read-out: Kd^app GATAD2B): 20 nM; Kd (NuRD complex; protein MBD3, read-out: Kd^app MBD3): 20 nM; Kd (NuRD complex; protein MTA1, read-out: Kd^app MTA1): 20 nM; Kd (NuRD complex; protein MTA2, read-out: Kd^app MTA2): 20 nM; Kd (NuRD complex; protein MTA3, read-out: Kd^app MTA3): 20 nM; Kd (CoREST complex; protein GSE1, read-out: Kd^app GSE1): 10 nM; Kd (CoREST complex; protein HMG20A, read-out: Kd^app HMG20A): 10 nM; Kd (CoREST complex; protein HMG20B, read-out: Kd^app HMG20B): 10 nM; Kd (CoREST complex; protein PHF21A, read-out: Kd^app PHF21A): 20 nM; Kd (CoREST complex; protein RCOR1, read-out: Kd^app RCOR1): 10 nM; Kd (CoREST complex; protein RCOR3, read-out: Kd^app RCOR3): 10 nM; Kd (CoREST complex; protein ZMYM2, read-out: Kd^app ZMYM2): 10 nM |
| Cc1[nH]c2ccccc2c1CCNCc1ccc(/C=C/C(=O)NO)cc1 [panobinostat] |  | > 10000 nM | 12100 nM | > 10000 nM | > 10000 nM | 8230 nM |  |  |
| O=C(CCCCCN1C(=O)c2cccc3cccc(c23)C1=O)NO [scriptaid] | 790 nM | 350 nM | > 10000 nM | 4840 nM | 5380 nM | > 10000 nM | 320 nM | Kd (MIER2): 810 nM; Kd (EHMT2): 1300 nM |
